Here are results for two molecules from publication PMC5112770 (ACS chemical neuroscience, 2015).

Read-outs that look alike come from different tables or passages of the source.

The target of experiment [1] is T1, tau (Homo sapiens, UniProt P10636). Format: biochemical.
The target of experiment [2] is T1, tau. Format: biochemical. The source holds these as a separate data set.

T1 sequence (P10636 1-441 isoform P10636-8): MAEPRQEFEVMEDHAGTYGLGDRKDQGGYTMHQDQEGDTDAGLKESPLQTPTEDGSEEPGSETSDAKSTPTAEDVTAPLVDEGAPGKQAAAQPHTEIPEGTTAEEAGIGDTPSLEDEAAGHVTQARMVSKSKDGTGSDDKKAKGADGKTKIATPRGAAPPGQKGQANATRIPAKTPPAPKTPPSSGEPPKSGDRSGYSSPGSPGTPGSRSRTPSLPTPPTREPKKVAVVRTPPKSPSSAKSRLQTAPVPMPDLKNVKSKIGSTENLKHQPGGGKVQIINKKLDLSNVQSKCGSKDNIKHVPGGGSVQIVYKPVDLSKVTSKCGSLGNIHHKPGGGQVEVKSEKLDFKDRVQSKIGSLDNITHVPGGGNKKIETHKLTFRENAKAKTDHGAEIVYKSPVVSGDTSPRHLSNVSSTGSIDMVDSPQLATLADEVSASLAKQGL

For `CC[C@H](C)/C=C(C)/C=C/C1=CC2=C(Br)C(=O)C(C)(OC(C)=O)C(=O)C2=CO1` (some centres unmarked) [aza-9], the IC50 in experiment [1] was 56 ± 14 µM. As to `CC[C@H](C)/C=C(C)/C=C/C1=CC2=C(Br)C(=O)C(C)(O)C(=O)C2=CO1` (some centres unmarked) [aza-13], in experiment [2], the IC50 came out at 216 ± 18 µM.

A word on the IC50: it is the concentration needed to halve the response being measured. A low value points to inhibition by little substance.
